Reference: patent US4006238A, “Use of 2-(hydroxyalkyl)-1H-benz[de]isoquinoline-1,3(2H)-diones as anti-allergy agents” (E. R. Squibb & Sons, Inc., priority 1975, dated 1977)

Each compound was assayed on reaginic antibody induced passive cutaneous anaphylaxis (PCA) reaction (assay: reaginic antibody induced passive cutaneous anaphylaxis (PCA) reaction in rats). Conditions: male rat; anti-Egg Albumin intradermal; two doses of test compound (75 mg./kg.) intraperitoneally, 90 and 10 minutes prior to intravenous Egg Albumin/Evans Blue challenge; scored thirty minutes after.
Type: in vivo
Method: The compounds of formula I are anti-allergics which inhibit the effects of certain antigen-antibody reactions and in particular inhibit the release of mediators such as histamine. The anti-allergy activity of these compounds is determined by the reaginic antibody induced passive cutaneous anaphylaxis (PCA) reaction in rats. (See Bach, Immediate Hypersensitivity: Laboratory Models and Experimental Findings, Ann. Rep. Med. Chem., 7: 238-248 (1972), for a discussion of the predictability of clinical efficacy of compounds active in the PCA).
The experimental procedure employed is as follows. A male rat is given an intradermal injection on one flank of 0.05 ml. of antibody (reaginic) (anti-Egg Albumin). 24 hours later two doses of test compound (75 mg./kg.) are administered intraperitoneally, one dose ninety minutes and the other ten minutes prior to a 0.5 ml. intravenous injection of an antigen challenge (equal portions of Egg Albumin 4 mg./ml. and 1% Evans Blue Dye). […] A score is obtained according to the formula
Total score = (diameter) × (intensity)
wherein the intensity of the spot is rated on a scale of 1 to 3 as follows
and the diameter is determined by averaging in millimeters two measured diameters of the reaction.
The percent inhibition is calculated by comparing the scores obtained in both compound and non-compound treated animals according to a pre-determined standard curve relationship between score and the quantity of antibody used to elicit the reaction.
For `O=C1c2cccc3cccc(c23)C(=O)N1CCO` [2-(2-Hydroxyethyl)-1H-benz[de]isoquinoline-1,3(2H)-dione], the “Percent Inhibition” value was 36%. `O=C1c2cccc3cccc(c23)C(=O)N1CCCO` [2-(3-Hydroxypropyl)-1H-benz[de]isoquinoline-1,3(2H)-dione] was tested, and the “Percent Inhibition” value was 52%. With `O=C1c2cccc3cccc(c23)C(=O)N1CCCCO` [2-(4-Hydroxybutyl)-1H-benz[de]isoquinoline-1,3(2H)-dione] the “Percent Inhibition” value was 53%. In the case of `O=C1c2cccc3cccc(c23)C(=O)N1CCCCCO` [2-(5-Hydroxypentyl)-1H-benz[de]isoquinoline-1,3(2H)-dione], the “Percent Inhibition” value is reported as 8%. `O=C1c2cccc3cccc(c23)C(=O)N1CO` [2-(Hydroxymethyl)-1H-benz[de]isoquinoline-1,3(2H)-dione] was tested, and the “Percent Inhibition” value was 50%.
